{"source": "paper PMC10229121", "about": "“An acetylation-mediated chromatin switch governs H3K4 methylation read-write capability” (eLife, 2023)", "system": "H3K4 methylation and H3 acetylation in MCF-7 breast cancer cells", "test": "Middle-down mass spectrometry of histone H3 from MCF-7 cells ± KDAC inhibition (H3K4 methylation and H3 acetylation)", "assay_type": "cell-based", "conditions": "for 0ac state, percent of total H3 / 1ac state, percent of total H3 / 2ac state, percent of total H3 / 3ac state, percent of total H3 / 4ac state, percent of total H3 / 5ac state, percent of total H3: MCF-7, 5 mM butyrate 1H; for percent H3K4me3: sheet percentsk4me3", "method": "MCF-7 breast cancer cells (ATCC HTB-22) were grown in MEM (Gibco) supplemented with 10% fetal bovine serum (VWR), 100 I.U. penicillin, 100 µg/mL streptomycin (Corning), 0.01 mg/mL human recombinant insulin (Gibco), and 5 µg/mL plasmocin (Invivogen) at 37 °C and 5% CO2. HEK-293 (ATCC CRL-1573) was grown in DMEM (Gibco) supplemented with 10% fetal bovine serum (Corning), 100 I.U. penicillin, and 100 µg/mL streptomycin (Gibco) at 37 °C and 5% CO2. Both cell lines were authenticated via STR profiling and confirmed to be Mycoplasma negative.\nFor mass spectrometric (MS) analysis ± KDAC inhibition, cells were cultured in 150 mm dishes to ~80% confluence and treated with 5 mM sodium butyrate (or equivalent volume of water) in triplicate for 0, 10, 20, 30, 60, 120 min. […] Histones were acid extracted after nuclei isolation as described ([Holt et al., 2021]). Isolated histones were resuspended in 85 µL 5% acetonitrile, 0.2% trifluoroacetic acid (TFA), and resolved by offline high-performance liquid chromatography (HPLC) as described ([Holt et al., 2021]). […] After chromatographic separation and fraction collection, histone H3.1 was selected, diluted in 100 mM ammonium acetate (pH = 4), and digested with Glu-C protease (Roche) at 10:1 protein:enzyme for 1 hr at room temperature prior to mass spectrometric analysis.\nThe digested samples were diluted to 2 µg/µL. Online HPLC was performed on a U3000 RSLC nano Pro-flow system using a C3 column (Zorbax 300 SB-C3, 5 µm; Agilent). Samples were maintained at 4 °C and 1 µL injected for each analysis using a microliter pickup. […] The column eluant was introduced into an Orbitrap Fusion Lumos mass spectrometer (Thermo Fisher) by nano-electrospray ionization. A static spray voltage of 1900 V and an ion transfer tube temperature of 320 °C were set for the source.\nA Fusion Lumos mass spectrometer was used to generate MS data. The 9th charge state of histone H3 was targeted for analysis. MS1 analysis was acquired in the orbitrap with a normal mass range and a 60 k resolution setting in positive ion mode. An Automatic Gain Control (AGC) target of 5.0E5 with a 200 ms maximum injection time, three microscans, and a scan range of 585–640 m/z was used to identify desired ions for fragmentation. MS2 acquisition was performed in both orbitrap and ion trap modes. Both modes used electron transfer dissociation (ETD), a reaction time of 18ms, and an injection time of 200 ms. A normal scan range was used for the orbitrap mode with a resolution setting of 30 k and an AGC target of 5.0E5, with two micro scans. A narrow scan range of 470–530 m/z, targeting ions indicative of K4 modification states, was used for the ion trap mode MS2 with an ACG target of 3.0E4, quadrupole isolation, maximum injection time of 100ms, and eight microscans.\nThese MS methods were used with two technical replicates per biological replicate (n=3). An MS ion trap mode with a targeted mass list was used to increase sensitivity to identify known low-abundance K4me3-containing proteoforms. The ion trap MS2 spectra were averaged for each H3 acetyl state based on known retention times, and the intensities of ions indicative of the K4 methylation states were manually recorded. Retention times for each acetyl state were approximated as 0ac 35–40 min, 1ac 45–55 min, 2ac 55–60 min, 3ac 62–68 min, 4ac 69–73 min, and 5ac 74–78 min. Precursor mass was used as an additional confirmation and filter of the correct acetyl state. For scans yielding low signal and high noise (i.e. 5ac at 0 min butyrate treatment), data were manually curated before averaging. Within acetyl states, the relative proportion of fragment ions for unmodified, mono-, di-, and tri-methylation of the H3K4 ion at respective m/z of 474, 488, 502, and 516 were recorded per MS run. Values were averaged across replicates of the same conditions and normalized to one hundred percent. A two-tailed t-test was used for significance. […]", "note": "“Also recorded” adds a separate entry of the source."}
{"compound": "CCCC(=O)O", "note": "[sodium butyrate]", "values": [{"measurement": "0ac state, percent of total H3", "setting": "AVG n=3", "value": 38.12, "unit": "%"}, {"measurement": "1ac state, percent of total H3", "setting": "AVG n=3", "value": 25.98, "unit": "%"}, {"measurement": "2ac state, percent of total H3", "setting": "AVG n=3", "value": 20.63, "unit": "%"}, {"measurement": "3ac state, percent of total H3", "setting": "AVG n=3", "value": 12.03, "unit": "%"}, {"measurement": "4ac state, percent of total H3", "setting": "AVG n=3", "value": 2.14, "unit": "%"}, {"measurement": "5ac state, percent of total H3", "setting": "AVG n=3", "value": 1.10, "unit": "%"}, {"measurement": "0ac state, percent of total H3", "setting": "normalized, replicate 1", "value": 53.59, "unit": "%"}, {"measurement": "1ac state, percent of total H3", "setting": "normalized, replicate 1", "value": 15.56, "unit": "%"}, {"measurement": "2ac state, percent of total H3", "setting": "normalized, replicate 1", "value": 13.01, "unit": "%"}, {"measurement": "3ac state, percent of total H3", "setting": "normalized, replicate 1", "value": 15.85, "unit": "%"}, {"measurement": "4ac state, percent of total H3", "setting": "normalized, replicate 1", "value": 1.53, "unit": "%"}, {"measurement": "5ac state, percent of total H3", "setting": "normalized, replicate 1", "value": 0.47, "unit": "%"}, {"measurement": "0ac state, percent of total H3", "setting": "normalized, replicate 2", "value": 28.79, "unit": "%"}, {"measurement": "1ac state, percent of total H3", "setting": "normalized, replicate 2", "value": 37.29, "unit": "%"}, {"measurement": "2ac state, percent of total H3", "setting": "normalized, replicate 2", "value": 21.30, "unit": "%"}, {"measurement": "3ac state, percent of total H3", "setting": "normalized, replicate 2", "value": 8.21, "unit": "%"}, {"measurement": "4ac state, percent of total H3", "setting": "normalized, replicate 2", "value": 3.37, "unit": "%"}, {"measurement": "5ac state, percent of total H3", "setting": "normalized, replicate 2", "value": 1.05, "unit": "%"}, {"measurement": "0ac state, percent of total H3", "setting": "normalized, replicate 3", "value": 31.98, "unit": "%"}, {"measurement": "1ac state, percent of total H3", "setting": "normalized, replicate 3", "value": 25.08, "unit": "%"}, {"measurement": "2ac state, percent of total H3", "setting": "normalized, replicate 3", "value": 27.59, "unit": "%"}, {"measurement": "3ac state, percent of total H3", "setting": "normalized, replicate 3", "value": 12.04, "unit": "%"}, {"measurement": "4ac state, percent of total H3", "setting": "normalized, replicate 3", "value": 1.54, "unit": "%"}, {"measurement": "5ac state, percent of total H3", "setting": "normalized, replicate 3", "value": 1.77, "unit": "%"}, {"measurement": "percent H3K4me3", "setting": "MCF-7, 5 mM butyrate 10M, 0ac, AVG n=3", "value": 1.08, "unit": "%"}, {"measurement": "percent H3K4me3", "setting": "MCF-7, 5 mM butyrate 10M, 1ac, AVG n=3", "value": 0.40, "unit": "%"}, {"measurement": "percent H3K4me3", "setting": "MCF-7, 5 mM butyrate 10M, 2ac, AVG n=3", "value": 1.95, "unit": "%"}, {"measurement": "percent H3K4me3", "setting": "MCF-7, 5 mM butyrate 10M, 3ac, AVG n=3", "value": 2.18, "unit": "%"}, {"measurement": "percent H3K4me3", "setting": "MCF-7, 5 mM butyrate 10M, 4ac, AVG n=3", "value": 1.30, "unit": "%"}, {"measurement": "percent H3K4me3", "setting": "MCF-7, 5 mM butyrate 10M, 5ac, AVG n=3", "value": 0.42, "unit": "%"}, {"measurement": "percent H3K4me3", "setting": "MCF-7, 5 mM butyrate 30M, 0ac, AVG n=3", "value": 1.93, "unit": "%"}, {"measurement": "percent H3K4me3", "setting": "MCF-7, 5 mM butyrate 30M, 1ac, AVG n=3", "value": 1.29, "unit": "%"}, {"measurement": "percent H3K4me3", "setting": "MCF-7, 5 mM butyrate 30M, 2ac, AVG n=3", "value": 1.93, "unit": "%"}, {"measurement": "percent H3K4me3", "setting": "MCF-7, 5 mM butyrate 30M, 3ac, AVG n=3", "value": 1.64, "unit": "%"}, {"measurement": "percent H3K4me3", "setting": "MCF-7, 5 mM butyrate 30M, 4ac, AVG n=3", "value": 2.14, "unit": "%"}, {"measurement": "percent H3K4me3", "setting": "MCF-7, 5 mM butyrate 30M, 5ac, AVG n=3", "value": 4.20, "unit": "%"}, {"measurement": "percent H3K4me3", "setting": "MCF-7, 5 mM butyrate 60M, 1ac, AVG n=3", "value": 1.27, "unit": "%"}, {"measurement": "percent H3K4me3", "setting": "MCF-7, 5 mM butyrate 60M, 2ac, AVG n=3", "value": 1.44, "unit": "%"}, {"measurement": "percent H3K4me3", "setting": "MCF-7, 5 mM butyrate 60M, 3ac, AVG n=3", "value": 1.39, "unit": "%"}, {"measurement": "percent H3K4me3", "setting": "MCF-7, 5 mM butyrate 120M, 0ac, AVG n=3", "value": 1.23, "unit": "%"}, {"measurement": "percent H3K4me3", "setting": "MCF-7, 5 mM butyrate 120M, 1ac, AVG n=3", "value": 1.92, "unit": "%"}, {"measurement": "percent H3K4me3", "setting": "MCF-7, 5 mM butyrate 120M, 2ac, AVG n=3", "value": 2.41, "unit": "%"}, {"measurement": "percent H3K4me3", "setting": "MCF-7, 5 mM butyrate 120M, 3ac, AVG n=3", "value": 1.99, "unit": "%"}, {"measurement": "percent H3K4me3", "setting": "MCF-7, 5 mM butyrate 120M, 4ac, AVG n=3", "value": 4.58, "unit": "%"}, {"measurement": "percent H3K4me3", "setting": "MCF-7, 5 mM butyrate 120M, 5ac, AVG n=3", "value": 21.35, "unit": "%"}, {"measurement": "H3K4 methylation, in words", "setting": "MCF-7, 5 mM sodium butyrate", "value": "increase in all H3K4 methyl states relative to the unmodified state concomitant with increasing states of H3 acetylation; also recorded: H3K4me3 levels most dramatically increased in tandem with the 5ac H3 state; also recorded: H3K4 methylation increased for the most highly acetylated proteoforms"}, {"measurement": "H3 poly-acetylation, in words", "setting": "MCF-7, 5 mM sodium butyrate", "value": "H3 poly-acetylation rapidly increased"}]}
